Assay results: patent US20200316156A1, “NASAL BALM FOR RELIEVING ALLERGIC RHINITIS SYMPTOMS” (priority 2019, published 2020)
Values joined by “and” are separate entries in the source; they are usually repeats but may differ in a detail not shown here. Equal values may be shown once. Where a name gives a salt, the structure may show the parent alone.

System: allergic rhinitis of BALB/c mice
Test: OVA-induced allergic rhinitis in BALB/c mice, sneeze number
Format: in vivo
Details: for Sneeze number, individual mouse: within 15 min after administration, mice No. 1-4, hydrochloride
Procedure: 1. Experimental objective: to study the effect of the nasal balm of the disclosure on the allergic rhinitis of BALB/c mice.
2 mg of OVA powder was weighed, dissolved with physiologic saline solution. The final volume was calibrated accurately to 14 mL. 3.5 mL of the OVA solution was pipetted into a 5 mL Eppendorf tube, followed by the addition of 0.5 mL of uniform aluminum hydroxide gel, and then the OVA solution was dropwise added. The mixture was shaken for 30 min, and then 0.2 mL of the resulting solution was injected to each mouse to induce the sensitization.
2 mg of OVA powder was weighed, dissolved with physiologic saline solution. The final volume was calibrated accurately to 14 mL.
The mice were quarantined, adaptively fed, and divided into four groups: normal group, model group, positive control group and test group. Each group had 4 mice labeled as No. 1, No. 2, No. 3 and No. 4, respectively. The rest two mice were as backup.
The model group, positive control group and test group were administered with OVA solution through abdominal cavity to induce sensitization. Each mouse was administered with 0.2 mL of OVA solution containing 25 μg of OVA and 1 mg of aluminum hydroxide. Normal group as a control was injected with physiological saline solution at a dosage of 0.2 mL per mouse, where the first injection was labeled as D0, and the second injection and the third injection were performed on D7 and D14, respectively.
After induction, the drugs were administrated to initiate sensitization. The test product was smeared on the noses of the mice in normal group 6 times each day. After application of the test product each day, 20 μL of physiological saline solution was dripped into the nasal cavity of the mice in normal group as a control, at a dosage of 10 μL per nostril. The physiological saline solution was smeared on the nose of the mice in model group 6 times each day. 5 μL of Levocabastine was dripped into the nasal cavity of the mice in positive control group 2 times each day, at a dosage of 2.5 μL per nostril. The test product was smeared on the noses of the mice in test group 6 times each day. After administration of the drugs each day, 20 μL of the OVA solution for sensitization was dripped into the nasal cavity of the mice in model group, positive control group and test group, respectively, at a dosage of 10 μL per nostril.
Daily administration was continued for 10 days from D20-D30. On D23, D27 and D30 (that is, the 3rd day, 7th day and 10th day after administration), the number of times mice sneezed in each group within 15 min after administration was counted.
Unpaired two-tailed t-test was used to analyze data for each group.

## C[C@@H]1CN([C@H]2CC[C@](C#N)(c3ccc(F)cc3)CC2)CC[C@]1(C(=O)O)c1ccccc1 [Levocabastine, Levocabastine hydrochloride]
3rd day of administration
  Sneeze number compared with the model group: decreased significantly
7th day of administration
  Sneeze number compared with the model group: no significant difference
10th day of administration
  Sneeze number compared with the model group: no significant difference
D23 (3rd day of administration)
  Sneeze number, individual mouse: 7 and 15 and 8 and 11
D23, group of 4 mice, model group 22.75 ± 1.50
  Sneeze number of mice, statistical data: 10.25 ± 3.59
D27 (7th day of administration)
  Sneeze number, individual mouse: 75 and 45 and 44 and 22
D27, group of 4 mice, model group 69.75 ± 17.08
  Sneeze number of mice, statistical data: 46.50 ± 21.76
D30 (10th day of administration)
  Sneeze number, individual mouse: 124 and 108 and 46 and 110
D30, group of 4 mice, model group 100.25 ± 14.13
  Sneeze number of mice, statistical data: 97.00 ± 34.74
